Source: patent US9579364B2, “Methods for treating benign prostatic hypertrophy (BPH)” (New York University, priority 2002, dated 2017)
Where “and” joins values, the source holds several entries; their conditions need not be identical. Equal entries are not always repeated. Numbered stars: 1 amine (or outer) side, 2 acyl side, 3 side chain; on linkers, the order of the positions; unused ones are H or OH. Square brackets hold non-standard residues; d marks the D form. Side chains are listed from the residue outwards. Peptide text beside a SMILES is read from it. * marks the point of attachment. Ethylenediamine = C(CN[*:2])N[*:1]; Hyp = O=C(O)[C@@H]1C[C@@H](O)CN1; Phg = N[C@H](C(=O)O)c1ccccc1; CO = O=C([*:1])[*:2]; Bn = c1ccc(C*)cc1

How the values were obtained:
[1] = system: prostate of estradiol-treated male Wistar rats; assay: Estradiol-treated male Wistar rat model of BPH; assay type: in vivo; settings: for mean gland size: difference not significant
From the text: To evaluate further the efficacy of somatostatin 14 (SS-14) in the treatment of BPH and related urinary tract obstruction, the present inventors used an animal model system in which prostate hyperplasia, together with prostatitis is induced by administration of estradiol to male Wistar rats. The estradiol-treated Wistar rat animal model system was originally described by Robinette (1988, The Prostate 12:271-286; the content of which is incorporated herein in its entirety) as offering an animal model of the inflammation and fibromuscular growth observed in human BPH. Robinette also described the estradiol-treated Wistar rat animal model system as useful for identifying factors and/or xenobiotics that can inhibit or potentially reverse progression of prostatic fibromuscular proliferation. Wilson et al. (Exp Mol Pathol. 2004; 77:7-17; the content of which is incorporated herein in its entirety) also presented guidance pertaining to the estradiol-treated Wistar rat animal model system of Robinette, offering that chronic inflammation induced in the lateral prostate by estrogen treatment is accompanied later by fibromuscular proliferation, which correlates with the prevalence of chronic inflammation in BPH in men. To assay the therapeutic benefit of IGF-I inhibitors in an animal model system, the present inventors utilized the animal model system of Robinette (supra), as modified in accordance with standard methodology as set forth herein.
Three month old Wistar rats were treated for 2 weeks with 1-cm long 0.078 i.d.×0.125 o.d. Silastic tubings filled with estradiol (E2). Another group of estradiol treated animals was also given SS-14 via Alzet pump implanted into the subcutaneous fat of the back, at a dosage of 15 μg/kg/hour. At the end of the treatment period animals were sacrificed and prostates removed en bloc. A total of four animals were analyzed per group.
Prior to fixing and embedding, prostates were weighed. Bladder and coagulating glands were removed and the remaining tissues were embedded with urethral opening down. Blocks were then sectioned at 150 μm intervals.
The effect on total area of prostate occupied by glands was also assessed. To determine whether SS-14 would have an inhibitory effect on the glandular component of the prostate, the area of the organ occupied by glands in transverse sections, including the urethra and cut at the level at which the width of the prostate was maximal, was measured. Gland area is expressed as it relates to the total area of the organ in transverse sections.
The effect of SS-14 on the Fibromuscular Compartment surrounding the Urethra was also evaluated. To determine whether SS-14 reduced the fibromuscular component of the urethra, tissue sections were immunostained for smooth muscle α actin (αSMA). Each prostate was cut at 5 different levels, with 150 microns between each set of sections. The results of αSMA staining are shown in the photomicrographs depicted in FIG. 8; the whole urethra is indicated by circles and the surrounding fibromuscular layer by arrows.

mammary gland = settings: cited from earlier work
[2] = PQ401 or SS14 treatment of intact 28 day old male mice: body weight; assay type: in vivo
Procedure: (§1) In a first experimental approach, the effect of treatment of intact 28 day old male mice with vehicle or PQ401 (a small molecule IGF-I receptor specific inhibitor) or somatostatin-14 (SS14; a native somatostatin) was evaluated. PQ401 and SS14 inhibit IGF-I action. For these experiments, N=5 mice per group. The results of these experiments are presented below in Tables 7-10: […]

[3] = system: prostate of intact 28 day old male mice; assay: PQ401 or SS14 treatment of intact 28 day old male mice: prostate; assay type: in vivo
Procedure: To examine further the effect of various compounds on glandular and fibromuscular development of the prostate, somatostatin-14 (SS14, a native somatostatin) and an exemplary small molecule IGF-I receptor inhibitor PQ401 were assessed in a variety of animal models.
as §1

[4] = system: patients suffering from acromegaly; settings: acromegalic patients, 1 year, cited from earlier work
[5] = system: prostate of intact wild-type male mice; assay: IGFBP-1 effect on prostate development in 4-wk-old intact wild-type male mice; assay type: in vivo
Procedure: FIG. 7 depicts the effect of IGFBP-1 treatment on prostate structures in intact 28 day old male mice. After 7 d of treatment with IGFBP-1 or vehicle, prostate development in both fibromuscular and glandular compartments was analyzed. Effects on fibromuscular development (A), epithelial development (B), lumen size (C), total prostate area (D), and prostate weight (E) are shown. Effects of IGFBP-1 (compared with control) on cell division and programmed cell death are shown in representative photomicrographs (F) showing the effect of IGFBP-1 (lower row) on cell division (left) and apoptosis (right) compared with control animals (top row) Arrows point to Ki67 or TUNEL staining in stroma, and arrows point to those effects in glands. Magnification, 400×. Effects of Ki67 staining (G) for cell division (left) and effects on programmed cell death by TUNEL (right). WT, Wild type.
Eugonadal intact mice. The effect of treatment with IGH3P-1 on prostate development in 4-wk-old intact wild-type male mice was also studied. When compared with saline-treated control animals, IGFBP-1 inhibited all fibromuscular development, epithelial development, lumen size, prostate area, and prostate weight (FIG. 7, A-E). IGFBP-1 inhibited cell division in the epithelial compartment, and increased apoptosis in both fibromuscular and epithelial compartments (FIGS. 7, F and G).

[6] = 4-wk-old intact wild-type male mice (FIG. 7, F and G)

C[C@]12CC[C@@H]3c4ccc(O)cc4CC[C@H]3[C@@H]1CC[C@@H]2O [E2, estradiol]
Weight of prostates, individual animals ([1]; 3 month old Wistar rats, E2 2 weeks, SS-14 15 μg/kg/hour by Alzet pump, Animal #1-#4): 0.570 grams and 0.580 grams and 0.532 grams and 0.630 grams | MEAN WEIGHT of prostates ([1]; 3 month old Wistar rats, E2 2 weeks, SS-14 15 μg/kg/hour, second set of experiments, p=0.019): 0.578 grams | Ratio between the prostate area occupied by glandular elements and the whole organ area in transverse sections, individual animals ([1]; E2-treated Wistar rats): 0.8467 and 0.857 and 0.8758 and 0.8596 | Fibromuscular Layer Area of the urethra, MEAN AREA ([1]; E2-treated Wistar rats, αSMA immunostaining): 2.938 mm2 | Fibromuscular Layer Area of the urethra, individual animals ([1]; E2-treated Wistar rats, αSMA immunostaining, Animal #1-#4): 3.412 mm2 and 1.822 mm2 and 2.369 mm2 and 4.149 mm2 | mean gland size ([1]; E2-treated Wistar rats): 0.099 mm^2 | Ratio between the prostate area occupied by glandular elements and the whole organ area in transverse sections, AVERAGE ([1]; E2-treated Wistar rats, p=0.028): 0.860

NCCCC[C@@H]1NC(=O)[C@@H](Cc2c[nH]c3ccccc23)NC(=O)[C@H](c2ccccc2)NC(=O)[C@@H]2C[C@@H](OC(=O)NCCN)CN2C(=O)[C@H](Cc2ccccc2)NC(=O)[C@H](Cc2ccc(OCc3ccccc3)cc2)NC1=O [SOM230, pasireotide] (cyclo(F[Hyp]([CO-Ethylenediamine])[Phg][dW]KY(Bn)))
mammary development in rats (mammary gland): prevent mammary development | IRS-1 phosphorylation in the mammary gland (mammary gland; rats): reduction

C[C@H](N)C(=O)NCC(=O)N[C@H]1CSSC[C@@H](C(=O)O)NC(=O)[C@H](CO)NC(=O)[C@H]([C@@H](C)O)NC(=O)[C@H](Cc2ccccc2)NC(=O)[C@H]([C@@H](C)O)NC(=O)[C@H](CCCCN)NC(=O)[C@H](Cc2c[nH]c3ccccc23)NC(=O)[C@H](Cc2ccccc2)NC(=O)[C@H](Cc2ccccc2)NC(=O)[C@H](CC(N)=O)NC(=O)[C@H](CCCCN)NC1=O [SS14, Somatostatin-14]
Body weight ([2]; controls 26.9 ± 0.3): 23.9 ± 0.3 gm | % Reduction of body weight ([2]; vs controls): 11% | area of the Longitudinal muscle ([3]; 28 day old male mice, controls 0.939): 0.486 mm^2 | total area of the Circular muscle ([3]; 28 day old male mice, controls 1.322): 0.438 mm^2 | % Reduction of prostate weight ([3]; intact 28 day old male mice, vs 28 day control): 37% | mean gland size ([1]; E2-treated Wistar rats): 0.078 mm^2 | prostate weight of E2-treated rats, first set of experiments ([1]; vs control E2-treated rats (vehicle only), p=0.024): significant reduction

octreotide
circulating GH and IGF-I levels ([4]; in most of the patients treated): normalization | prostate volume [4]: reduction

B1: IGFBP-1: insulin-like growth factor binding protein, inhibitor of IGF-I action (protein, UniProt P08833 26-259, looked up)
Insulin-like growth …: APWQCAPCSAEKLALCPPVSASCSEVTRSAGCGCCPMCALPLGAACGVATARCARGLSCRALPGEQQPLHALTRGQGACVQESDASAPHAAEAGSPESPESTEITEEELLDNFHLMAPSEEDHSILWDAISTYDGSKALHVTNIKKWKEPCRIELYRVVESLAKAQETSGEEISKFYLPNCNKNGFYHSRQCETSMDGEAGLCWCVYPWNGKRIPGSPEIRGDPNCQIYFNVQN
apoptosis in both fibromuscular and epithelial compartments (TUNEL) [5, 6]: increased | cell division in the epithelial compartment (Ki67) [5, 6]: inhibited | fibromuscular development, epithelial development, lumen size, prostate area, and prostate weight ([5]; 4-wk-old intact wild-type male mice, 7 d, vs saline-treated control (FIG. 7, A-E)): inhibited
